The values that follow come from paper PMC4475797, “New Activity of a Protein from Canavalia ensiformis” (Scientia Pharmaceutica, 2014).

Where two headings read alike, the source gives them in different places.

In one series the target is T1, Concanavalin A (Con A) (Canavalia ensiformis, UniProt P02866).
T1 construct: purchased Sigma
The experiment in a line: biochemical. The format is binding. Here is the method: Fluorescence spectra were recorded with a Shimadzu spectrofluorometer (Japan). The emission spectra of the tryptophan residues were recorded in a 1-cm quartz cell (Hellma Analytics, Germany). To avoid the measurement of the Tyr emission, the protein sample was excited at λ=295 nm with a slit width of 1.0 nm. Total fluorescence was calculated after the normalization of the fluorescence spectra and correction for dilution. In order to normalize the inner filter and self-absorption effects, the excitation was always carried out less than 0.05 OD. The spectra were recorded in a wavelength range of 300–500 nm. All studies were done at 25°C with the temperature of the samples measured in the cuvette with an accuracy of ± 0.2°C.
The protein-ligand interactions were investigated by monitoring changes in the intrinsic protein fluorescence emission (θexc=295 nm). We applied ideal fluorescence titration and incubation methods for their intrinsic sensitivity and simplicity. For this purpose, Con A (1.8 µM) was incubated at 4°C overnight with increasing concentrations of MnTMPyP, ZnTPPS, and FeTMPyP. […] Applied porphyrin concentrations were consistent with minimizing artifacts due to aggregation phenomena. Con A-adenine interactions were studied by overnight incubation (at 4°C). The obtained experimental data were processed by non-linear and linear regression analysis, computed by a GraphPad Prism program and presented in figures comprising three independent sets of experiments.

Series [1] concerns cancer cell lines (Du-145, HD-LAPC-4, Hep-G2, HI-LAPC-4, LnCAP, PANC-1, and PC-3). More on the design: method as in PMID 20735206. Particulars: combined with an ascorbic acid; cited from earlier work.
Series [2] has as its system G361 (a human melanoma cell line). Set-up: method as in PMID 18645224. The conditions noted are these: G361 cells; cited from earlier work.
Where [3] appears, read: pH 6.8, read-out: Dissociation constants (KD) for the interaction.

For “5,10,15,20-Tetrakis(4-sulfonatophenyl)-porphyrin-Au(III)chloride [AuTPPS]”, the “effect on Trp fluorescence emission of Con A” value (“effect … of Con A” below) at Concanavalin A (Con A) is “fluorescence quenching”.
For orientation: Kd means a measure of binding affinity in units of concentration. Consider `C[n+]1ccc(-c2c3nc(c(-c4cc[n+](C)cc4)c4ccc([n-]4)c(-c4cc[n+](C)cc4)c4nc(c(-c5cc[n+](C)cc5)c5ccc2[n-]5)C=C4)C=C3)cc1.[Fe+3]` [FeTMPyP, 5,10,15,20-Tetrakis (N-methyl 4-pyridyl)-porphyrin Fe(III)], for which, at Concanavalin A (Con A), the “Hill slope (h)” value was 1.89±0.46 and the “blue shift of the emission maximum” value is listed as 5 nm. At Concanavalin A (Con A) (setting [3]), the Kd was determined as 950 ± 130 nM.
Consider `C[n+]1ccc(-c2c3nc(c(-c4cc[n+](C)cc4)c4ccc([n-]4)c(-c4cc[n+](C)cc4)c4nc(c(-c5cc[n+](C)cc5)c5ccc2[n-]5)C=C4)C=C3)cc1.[Cl-].[Cl-].[Cl-].[Cl-].[Cl-].[Mn+3]` [MnTMPyP, 5,10,15,20-Tetrakis (N-methyl-4-pyridyl)-porphyrin-Mn(III)pentachloride], for which the cytotoxic effect result in series [1] was “potent synergistic cytotoxic effect”. The “effect … of Con A” value on Concanavalin A (Con A) is on record as “fluorescence quenching”. Moreover, the Kd on Concanavalin A (Con A) (setting [3]) amounted to 1890 ± 540 nM.
As for `O=S(=O)([O-])c1ccc(-c2c3nc(c(-c4ccc(S(=O)(=O)[O-])cc4)c4ccc([nH]4)c(-c4ccc(S(=O)(=O)[O-])cc4)c4nc(c(-c5ccc(S(=O)(=O)[O-])cc5)c5ccc2[nH]5)C=C4)C=C3)cc1.[Zn+2].[Zn+2]` [ZnTPPS, 5,10,15,20-Tetrakis (4-sulfonatophenyl)-porphyrin-zinc(II)], at Concanavalin A (Con A), the “effect … of Con A” value is reported as “increase in the Trp fluorescence” and the “red shift of the emission maximum position” value is reported as 10 nm. Besides, in series [2], the cell death result is on record as “induces cell death”.
Take `Nc1ncnc2[nH]cnc12` [adenine]: on Concanavalin A (Con A), the Kd turned out to be 380 ± 80 nM and the “effect … of Con A” value is on record as “fluorescence quenching”.
